Data reported in patent US20230302031A1, “Modulators Of Purinergic Receptors and Related Immune Checkpoint For Treating Acute Respiratory Distress Syndrome” (priority 2020, published 2023).

Columns and labels:
[1] = tested on: SARS-CoV-2; conditions: reference 50; cited from earlier work
[2] = tested on: human monocyte derived macrophages (MDMs); test: IL-1β release from monocyte derived macrophages (MDMs); format: cell-based; conditions: 100 μM, FIG. 6G
[3] = tested on: MDMs; test: Microarray of human macrophage polarization-specific markers in MDMs; format: cell-based; conditions: 100 μM, 72 hours, FIG. 6Q
Method: MDMS were treated with 100 μM Kaempferol during 72 hours. Then, mRNAs were isolated using RNeasy kit (#74104, Quiagen) and gene expression analyses were performed with Agilent® SurePrint G3 Human GE 8x60K Microarray (Agilent Technologies, AMADID 39494) with the following single-color design. RNAs were labeled with Cy3 using the one-color Agilent labeling kit (Low Input Quick Amp Labeling Kit 5190-2306) adapted for small amount of total RNA (100 ng total RNA per reaction). Hybridization were then performed on microarray using 800 ng of linearly amplified cRNA labeled, following the manufacturer protocol (Agilent SureHyb Chamber; 800 ng of labeled extract; duration of hybridization of 17 hours; 40 μL per array; Temperature of 65° C.). […] Microarray images were analyzed by means of Feature Extraction software version (10.7.3.1) from Agitent technologies. […]
Raw data files from Feature Extraction were imported into R with LIMMA (Smyth, 2004, Statistical applications in Genetics and molecular biology, vol 3, N°1, article 3), an R package from the Bioconductor project, and processed as follow: gMedianSignal data were imported, controls probes were systematically removed, and flagged probes (gisSaturated, glsFeatpopnOL, glsFeatNonUnifOL) were set to NA. […] Normalized data were then analyzed. […]

[4] = tested on: PMA-differentiated THP1 macrophages; test: LDH release from PMA-differentiated THP1 macrophages; format: cell-based, human; conditions: treated or not with LPS and ATP; FIG. 5H
[5] = tested on: MDMs; test: IL-10 secretion by MDMs; format: cell-based, human; conditions: 100 μM, FIG. 6K
[6] = tested on: PMA-treated THP1 macrophages; test: IL-10 secretion by PMA-treated THP1 macrophages; format: cell-based, human; conditions: 100 μM, FIG. 6J
Method: (§1) Plasma serum from P2y2^+/+ and P2y2^−/− mice and supernatants harvested from PMA-stimulated THP1 macrophages that were depleted or not for P2Y2 or NLRP3, and/or stimulated with 10 ng/mL LPS during 3 hours and 5 mM ATP during 6 hours or with 20 ng/mL IFNγ, in presence or in absence of 100 μM Suramin, 100 μM OxATP, 100 μM Kaempferol or 100 μM Diquafosol at indicated times were analyzed using western blot or ELISA for IL-1β (Ebioscience) and IL-10 (BD) according to the manufacturers' instructions.

[7] = tested on: MDMs; test: IRF5 expression in MDMs (western blot); format: cell-based, human; conditions: FIG. 6N
[8] = tested on: PMA-treated THP1 macrophages; test: IL-1β release from LPS+ATP-stimulated PMA-THP1 macrophages (western blot/ELISA); format: cell-based, human; conditions: 100 μM compound; 10 ng/mL LPS 3 hours + 5 mM ATP 6 hours; FIG. 6E, 6I
Method: Human THP-1 cells were cultured in RPMI 1640 media, supplemented with 10% FBS and differentiated by treatment for 3 hours with 100 nM phorbol-12-myristate-13-acetate (PMA, Invivogen). After 2 days, macrophage THP-1 cells were stimulated first 3 hours with ultrapure LPS from E. coli (10 ng/ml, LPS) and then stimulated for 6 hours with ATP (5 mM, Sigma) or treated with 50 ng or 20 ng of IFNg during 24 or 12 hours as indicated. Then, supernatants and cells were collected for western blot analysis.
Cells or supernatant were lysed in appropriated buffer (250 mM NaCl, 0.1% NP-40, 5 mM EDTA, 10 mM Na3VO4, 10 mM NaF, 5 mM DTT, 3 mM Na4P2O7, 1 mM EGTA, 10 mM Glycerol phosphate, 10 mM Tris-Hcl (pH=7.5) and the protease and phosphatase inhibitors (Roche)). Equal amount of supernatant or 10-40 μg of protein extracts were run on 4-12% or 10% SDS-PAGE and transferred at 4° C. onto a nitrocellulose membrane (0.2 Micron). After incubation for 2 hours at room temperature with 5% nonfat milk or BSA (Bovine Serum Albumine) in Tris-buffered saline and 0.1% Tween 20 (TBS-Tween), membranes were incubated with primary antibody at 4° C. overnight. […] The primary antibodies against. […] Western blots shown are representative of at least of three independent experiments.
as §1

[9] = tested on: MDMs; format: cell-based, human; conditions: FIG. 6L, 6M
[10] = tested on: COVID-19 patients with severe inflammatory failure; conditions: early administration; retrospective study, reference 51; cited from earlier work

For Ivermectin, which “replication of SARS-CoV-2 in vitro” value [1] is on record?
Its value is “inhibit the replication of SARS-CoV-2 in vitro”.

What does the source list for `O=c1c(O)c(-c2ccc(O)cc2)oc2cc(O)cc(O)c12` [Kaempferol]?
IL-1β release [2]: increased IL-1β release; known human markers of macrophage activation induced [3]: 90%; LDH release (cell death marker) [4]: released the cell death marker, lactate dehydrogenase (LDH); secretion of IL-10 [5]: reduced secretion of the immunosuppressive cytokine interleukin-10 (IL-10); secretion of IL-10 [6]: reduced secretion of the immunosuppressive cytokine interleukin-10 (IL-10); expression of IRF5 [7]: increased expression of the pro-inflammatory transcription factor IFN regulatory factor 5 (IRF5); IL-1β release [8]: increased IL-1β release; membrane expression of CD163 [9]: diminished membrane expression of anti-inflammatory macrophage activation marker CD163

Which “prognosis of COVID-19 patients” value [10] does the source give for anakinra: IL-1 receptor antagonist here?
Its value is “significantly improved prognosis of COVID-19 patients with severe inflammatory failure”.
